Data taken from US20220380341A1, “INHIBITORS OF HIV-1 NEF FOR THE TREATMENT OF HIV DISEASE” (priority 2018, published 2022).
Where two headings read alike, the source gives them in different places.

Key:
[1] = test system: HIV-1NL4-3; experiment: HIV-1 infectivity assay in TZM-bl reporter cell line (LTR-luciferase, 48 h); assay type: cell-based; details: Human immunodeficiency virus 1, TZM-bl
Procedure, shortened: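 TZM-bl cells (HIV-1 LTR-luciferase) infected with HIV-1NL4-3 with compound at 1 μM; luciferase read 48 h later. Percent inhibition normalized to DMSO wild-type infection (0%) and Nef-defective HIV-1 infection (100% of Nef-dependent effect). Viability in uninfected TZM-bl cells by Cell Titer Blue.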

[2] = test system: TZM-bl cell line; assay type: cell-based; details: human, 1 μM
Procedure, shortened: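 Luciferase read-out 48 h post-infection; compound at 1 μM during HIV-1NL4-3 infection of TZM-bl cells. Percent inhibition scaled to DMSO wild-type virus (0%) and DMSO Nef-defective virus (100% of Nef-dependent effect). Viability checked separately in uninfected cells by Cell Titer Blue.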

[3] = target: HIV-1 NefNL4-3 (Human immunodeficiency virus type 1 group M subtype B, UniProt P03406, A33V/T15A/T51N/V11I); experiment: Surface plasmon resonance binding to recombinant full-length Nef (NL4-3); details: for T, minutes (residence time): 2-step induced fit, T = 1/koff2; for RU30/RUNef (extent of binding): response units at 30 μM relative to Nef immobilized on the SPR chip
[4] = test system: HIV-1 NL4-3; experiment: HIV-1 replication in normal donor PBMCs (p24 Gag AlphaLISA); assay type: cell-based; details: Table 1, 4 days, words (Not active, Borderline) where no bound is given; for IC50: Human immunodeficiency virus 1, NL43, PBMC, 96 h
Experimental: FIG. 4. Inhibition of HIV-1 replication by compounds disclosed herein in PBMCs. Donor PBMCs were infected with HIV-1 in the presence of inhibitor concentrations ranging from 1 to 1,000 nM or the DMSO carrier solvent as a negative control (0.1% DMSO final). Replication was assessed by p24 Gag AlphaLISA (Perkin Elmer) […]. Each donor was also infected with Nef-defective HIV-1 to establish the baseline for Nef-dependent enhancement of replication in each culture. Cytotoxicity was assessed in uninfected PBMCs over the same incubation period using the CellTiter-Blue assay (Promega). Data were fit by non-linear regression analysis (GraphPad Prism v.7.04) to determine the IC50 and CC50 values shown.
The tables also show data for HIV-1 Replication in normal donor peripheral blood mononuclear cells (PBMCs), which is assay is conducted as follows:
Non-HLA-typed buffy coats (Source: Pittsburgh Central Blood Bank, #E3755) are received and processed within 24 hours of blood donation. PBMCs are isolated via rocking for RBC separation following 1:1 dilution with PBS, followed by Ficoll gradient centrifugation. The lymphocyte fraction is removed and washed several times for a final concentration of ˜150-300×10^6 cells per donor. Cells are activated for 3 days with 1-5 μg/mL PHA (Sigma) and 50 U/mL IL-2. Cells are plated at 750,000 cells/ml and viability is checked at day 3 using the Cell Titer Blue assay (Promega). If cells are >90% viable, then they are infected with HIV-1 NL4-3, wild-type or Δ-Nef mutant (input typically 30-500 pg/mL p24 capsid equivalents) in the presence or absence of Nef inhibitor analogs. IL-2 is included in the media at the time of infection. After 4 days, cells are lysed with 1% Triton X-100 for 1.5 h, checked for viability via Cell Titer Blue, and frozen/stored at −20° C. HIV-1 replication is assessed with a high-sensitivity HIV-1 p24 AlphaLISA assay (Perkin Elmer) in ½-volume 96-well plates, using one-half of the recommended assay volumes for all reagents (including samples). Assays are read on the BioTek Cytation5 instrument; readout is in AlphaUnits and replication in p24 pg/mL is determined using an HIV-1 p24 capsid protein standard included in the Alpha kit.

[5] = 1.0 μM, TZM-bl reporter cell line, Table 4, read-out: % Infectivity Inhibition
[6] = 48 h, Table 1, TZM-bl cells, 1 μM, 48 h, 100% = Nef-defective HIV-1, read-out: HIV-1 Infectivity % Inhibition Norm. to Δ-Nef @ 1 μM
[7] = KD, M, Table 4, SPR fit 2-step induced fit, KD = koff/kon × koff2/(koff2 + kon2)
[8] = Nef NL4-3 Binding, SPR 2-state fitting KD, Table 1, 2-step induced-fit model
[9] = read-out: Nef NL4-3 Binding, SPR 1:1 or 2-site fitting KD2, Table 1, 2-site fit, second component

Row | SMILES | inhibition at 1 µM [1, 5] [%] | inhibition at 1 µM [1, 6] [%] | % Cell Viability [2] [%] | Percent Viability @ 1 μM (TZM-bl cells) [2] [%] | Kd [3] [nM] | Kd [3, 7] [nM] | Kd [3, 8] [nM] | T, minutes (residence time) ([3]; Table 4) | Kd [3, 9] [nM] | RU30/RUNef (extent of binding) [3] | HIV Replication PBMC IC50 vs. HIV NL4-3 [4] | IC50 [4] [nM]
1 | Oc1c(CC2CCCC2)c(-c2ccc(C(F)(F)F)cc2)nn1-c1nc2ccccc2[nH]1 [Compound I-123, 1-(1H-1,3-benzodiazol-2-yl)-4-(cyclopentylmethyl)-3-[4-(trifluoromethyl)phenyl]-1H-pyrazol-5-ol] | 96.1 | 96.1 | 85.3 | 85.3 | 88.8 | 0.0936 | 0.0936 | 3.79E + 05 minutes | 87800 | 2.57E- 02 | Not active | –
2 | Oc1c(CCc2ccc(F)cc2)c(C2CCC2)nn1-c1nc2ccccc2[nH]1 [Compound I-129, 1-(1H-1,3-benzodiazol-2-yl)-3-cyclobutyl-4-[2-(4-fluorophenyl)ethyl]-1H-pyrazol-5-ol] | 60.9 | 60.9 | 99.3 | 99.3 | 2.38 | 0.0371 | 0.0371 | 5.19E + 05 minutes | 16800 | 1.28E- 02 | – | ≤ 10
3 | Oc1c(CCc2ccc(F)cc2)c(-c2ccc3c(c2)OC(F)(F)O3)nn1-c1nc2ccccc2[nH]1 [Compound I-145, 1-(1H-1,3-benzodiazol-2-yl)-3-(2,2-difluoro-2H-1,3-benzodioxol-5-yl)-4-[2-(4-fluorophenyl)ethyl]-1H-pyrazol-5-ol] | 0 | -11.7 | 98.2 | 98.2 | – | – | – | – | – | 4.38E- 03 | Not active | –
4 | Oc1c(CCc2ccc(F)cc2)c(-c2ccc(C(F)(F)F)cc2)nn1-c1nc2ccc(Cl)cc2[nH]1 [Compound I-161, 1-(6-chloro-1H-1,3-benzodiazol-2-yl)-4-[2-(4-fluorophenyl)ethyl]-3-[4-(trifluoromethyl)phenyl]-1H-pyrazol-5-ol] | 38.7 | 38.7 | 89.9 | 89.9 | – | – | – | – | – | 1.44E- 02 | Not active | –
5 | Oc1c(CCc2ccc(F)cc2)c(-c2ccc(C(F)(F)F)cn2)nn1-c1nc2cc(F)ccc2[nH]1 [Compound I-167, 1-(5-fluoro-1H-1,3-benzodiazol-2-yl)-4-[2-(4-fluorophenyl)ethyl]-3-[5-(trifluoromethyl)pyridin-2-yl]-1H-pyrazol-5-ol] | 52.1 | 52.1 | 81.2 | 81.2 | 299 | 2.02 | 2.02 | 5.05E + 03 minutes | 1740 | 1.11E- 02 | Not active | –
6 | CC(C)(C)OC(=O)N1CCC(c2nn(-c3nc4ccccc4[nH]3)c(O)c2CCc2ccc(F)cc2)CC1 [Compound I-202, tert-butyl 4-[1-(1H-1,3-benzodiazol-2-yl)-4-[2-(4-fluorophenyl)ethyl]-5-hydroxy-1H-pyrazol-3-yl]piperidine-1-carboxylate] | 100 | 105 | 79.2 | 79.2 | – | 0.00605 | 2220 | 6.36E + 06 minutes | – | 4.09E- 03 | Not active | –
7 | CC(C)(C)OC(=O)N1CCC(CCc2c(-c3ccc(C(F)(F)F)cc3)nn(-c3nc4ccccc4[nH]3)c2O)CC1 [Compound I-204] | 5.8 | 5.8 | 95.1 | 95.1 | – | 0.0229 | 0.0229 | – | 0.0635 | – | – | ≤ 1000
